For data set [1], the system named is L. (L.) infantum promastigotes. Briefly: Anti-promastigote activity, MTT viability assay. The data set is classed as cell-based, Leishmania (Leishmania) infantum. Conditions: for IC50: Leishmania infantum, 48 h incubation, MTT, value (SD). The method, then: (§1) L. (L.) infantum (MHOM/BR/1972/LD) promastigotes were maintained in M-199 medium supplemented with 10% heat-inactivated fetal bovine serum (FBS) (Gibco, Thermo Fisher Scientific, São Paulo, Brazil), 0.25% hemin (Sigma-Aldrich), and 5% human urine at 24 °C. Amastigotes were obtained from the spleen of previously infected hamsters by differential centrifugation. Macrophages were collected from the peritoneal cavity of BALB/c mice by washing with RPMI-1640 medium supplemented with 10% FBS, and were maintained at 37 °C in a 5% CO2-humidified incubator. Murine fibroblasts NCTC (clone L929 ATCC) were used to evaluate the cytotoxicity of the tested compounds. NCTC cells were maintained in M-199 medium supplemented with 10% FBS and 20 μg/mL gentamicin at 37 °C in a 5% CO2-humidified incubator.
Compounds were dissolved in DMSO and diluted in M-199 medium in 96-well microplates, with the highest concentration of 150 μM. Promastigotes of L. (L.) infantum in the late growth-phase were seeded at 1 × 10^6/well and incubated with the compounds for 48 h. The viability of cells was determined using the MTT assay. An internal control group was used with 0.5% DMSO (maximal concentration). Miltefosine was used as standard drug.
(§2) Data processing and statistical analyses was done with GraphPad Prism® 5.0 (GraphPad Software, Inc. La Jolla, CA, USA). For determination of antileishmanial activity and NCTC cytotoxicity, the IC50 and CC50 values were calculated after normalization using sigmoidal dose-response curves. The evaluation of statistical significance of multiple pairs was done with a Tukey's range test, which corrects for the increased probability of a type I error during multiple comparison.
A general note: Tetrazolium dyes change colour on reduction, which living cells bring about.

Data set [2] has as its system L. (L.) infantum intracellular amastigotes. Briefly: Activity against intracellular amastigotes in peritoneal macrophages, Giemsa staining and light microscopy. The data set is classed as cell-based, Leishmania (Leishmania) infantum. Conditions: for IC50: Leishmania infantum, Peritoneal macrophage, intracellular amastigotes in murine peritoneal macrophages, 120 h, highest concentration 100 μM, value (SD). As for the experimental part: as §1
Murine peritoneal macrophages were collected from the peritoneal cavity of BALB/c mice, and the macrophages were seeded at 1 × 10^5/well for 24 h in a 16-well slide. Amastigotes were prepared (as described previously), seeded at a ratio 1:10 (macrophages:amastigotes) and kept at 37 °C in a 5% CO2-humidified incubator for 24 h. Test compounds were incubated to the highest concentration of 100 μM with infected macrophages for 120 h. Miltefosine was used as a standard drug. Subsequently, the cells were fixed with methanol, stained with Giemsa (Merck KGaA, Darmstadt, Germany), and observed using a light microscope. The parasite burden was determined by the number of infected macrophages out of 400 cells.
as §2

The nature of data set [3]: Mammalian cytotoxicity, MTT assay. Conditions: mouse, NCTC murine fibroblasts, 48 h, MTT, value (SD); for CC50 at 48 h: NCTC clone L929 fibroblasts. The data set is classed as cell-based, murine. The method, then:
as §1
(§3) NCTC cells were seeded at 6 × 10^4 in 96-well microplates and incubated with the compounds for 48 h. An internal control group was used with 0.5% DMSO (maximal concentration). The quantification of viable cells was assessed by the MTT assay. The selectivity index (SI) was determined using the following equation: SI = CC50 in NCTC cells / IC50 against amastigotes.
as §2

For data set [4], the system named is axenic amastigotes (extracellular) of L. (L.) amazonensis. Also on record: method as in PMID 24913205. Conditions: cited from earlier work.
In data set [5] the test system is L. (L.) mexicana. Also on record: method as in PMID 18576826. Conditions: cited from earlier work.
For data set [6], the system named is Murine fibroblasts NCTC (clone L929 ATCC). Briefly: Mammalian cytotoxicity, MTT assay. The data set is classed as cell-based. Conditions: NCTC cells. The method, then:
as §1, §3, §2

Data set [7] relates to L. (L.) infantum promastigotes plasma membrane. Briefly: Plasma membrane permeability, SYTOX Green. The data set is classed as cell-based, Leishmania (Leishmania) infantum. Conditions: 3 and 6 μM, 60 min, compared with untreated parasites. The method, then: Late-growth-phase (non-stationary) promastigotes were incubated with the probe SYTOX Green (Molecular Probes Inc., Eugene, OR, USA), as previously described. […] 1 was added at 3 and 6 μM to 1 × 10^6 cells/well, at 24 °C. The fluorescence was measured every 20 min (0–80 min). At the end of the assay (80 min), 0.1% Triton X-100 was added to all wells to obtain the maximum permeabilization of parasites. Fluorescence intensity was determined using a fluorimetric microplate reader (FilterMax F5 Multi-Mode Microplate Reader-Molecular Devices, Sunnyvale, CA, USA) with excitation and emission wavelengths of 485 and 520 nm, respectively. The following internal controls were used during the evaluation: (i) the background fluorescence of the compound at the respective wavelengths; (ii) the possible interference of DMSO; (iii) untreated promastigotes; and (iv) medium without any cells. Samples were tested in duplicate.

Data set [8] concerns L. (L.) infantum promastigotes. Briefly: Mitochondrial membrane potential, rhodamine 123, flow cytometry. The data set is classed as cell-based, Leishmania (Leishmania) infantum. Conditions: 6 μM, 1 h, compared with untreated parasites. The method, then: The Δψm and ROS content of promastigotes treated with compound 1 were determined using the fluorescence probes rhodamine 123 and H2DCFDA (Molecular Probes Inc., Eugene, OR, USA), respectively, and further evaluated by flow cytometry. […] The parasites were incubated in HANKS’ balanced salts solution (HBSS; Sigma-Aldrich, Carlsbad, CA, USA), supplemented with 10 mM D-Glucose, at 26 °C for 1 h. Afterwards the parasites were washed and stained with rhodamine 123 (0.3 μg/mL) or H2DCFDA (5 μM) for 15 min under absence of light. The washed parasites were resuspended in PBS and the fluorescence was measured in a Flow Cytometer Attune Nxt (ThermoFisher Scientific, Waltham, MA, USA) using the forward scatter (FSC, relative cell size) and the side scatter detectors (SSC, cell granulometry or internal complexity), FL1-A (detecting fluorescence emission 530 ± 15 nm), and Attune Nxt software. As control, untreated promastigotes (not stained with Rd123 or H2DCFDA) served to monitor the basal fluorescence. […] Samples were tested in duplicate. Two independent assays were performed.
(In general: Flow cytometry measures light scatter and fluorescence of single cells or particles in a stream.)

The subject of data set [9] is L. (L.) infantum promastigotes. Briefly: ROS production, H2DCFDA, flow cytometry. The data set is classed as cell-based, Leishmania (Leishmania) infantum. The method, then:
The Δψm and ROS content of promastigotes treated with compound 1 were determined using the fluorescence probes rhodamine 123 and H2DCFDA (Molecular Probes Inc., Eugene, OR, USA), respectively, and further evaluated by flow cytometry. Briefly, 2 × 10^6 promastigotes/well cultured until the late growth-phase were treated with […] of 1 (corresponding to the IC99 value obtained with 1 × 10^6 parasites/well). The parasites were incubated in HANKS’ balanced salts solution (HBSS; Sigma-Aldrich, Carlsbad, CA, USA), supplemented with 10 mM D-Glucose, at 26 °C for 1 h. Afterwards the parasites were washed and stained with rhodamine 123 (0.3 μg/mL) or H2DCFDA (5 μM) for 15 min under absence of light. The washed parasites were resuspended in PBS and the fluorescence was measured in a Flow Cytometer Attune Nxt (ThermoFisher Scientific, Waltham, MA, USA) using the forward scatter (FSC, relative cell size) and the side scatter detectors (SSC, cell granulometry or internal complexity), FL1-A (detecting fluorescence emission 530 ± 15 nm), and Attune Nxt software. As control, untreated promastigotes (not stained with Rd123 or H2DCFDA) served to monitor the basal fluorescence. […] Samples were tested in duplicate. Two independent assays were performed.

Data set [10] relates to peritoneal macrophages of BALB/c mice. Briefly: Nitric oxide production in macrophages, Griess assay. Conditions: 3 μM, 24 h, similar levels as LPS. The data set is classed as cell-based, Mus musculus. The method, then:
The NO production of macrophages treated with 1 was performed using the Griess assay. Briefly, 1 × 10^5/well peritoneal macrophages of BALB/c mice were seeded overnight in a 96-well plate. Fresh medium containing compound 1 at 3 µM (corresponding to the CC25 value obtained with NCTC cells) or 5 µg/mL LPS (positive control) were added and incubated for 24 h at 37 °C. Afterwards the NO content of each of the cultures’ supernatant was analysed using the Griess assay. The samples’ NO content was determined by means of a standard curve prepared with NaNO2 at concentrations from 0 to 400 μM.

Data set [11] has as its system L. (L.) infantum promastigotes. Briefly: Ultrastructural analysis by transmission electron microscopy. The data set is classed as cell-based, Leishmania (Leishmania) infantum. Conditions: 0.5-4 h incubation; 1 μM or 120 μM. As for the experimental part: Ultrastructural studies were performed with promastigotes treated with compound 1 by TEM. L. (L.) infantum promastigotes in the late growth phase were washed and incubated with 120 μM of 1 (corresponding to the IC99 value obtained with 1 × 10^6 parasites/well) at 2 × 10^7/well in 200 μL M-199 medium. Compound incubation was performed for 0.5, 1, 2, 3, and 4 h under the previously described growth conditions. After centrifugation at 2800 rpm for 10 min, the parasites were fixed with 1 mL glutaraldehyde and the sample processing was performed according to Duarte et al.. The TEM imaging was performed on a JEOL 1011 transmission electron microscope (Peabody, MA, USA).

The source of these data is article PMC6154613, “Investigation of the Anti-Leishmania (Leishmania) infantum Activity of Some Natural Sesquiterpene Lactones” (Molecules : A Journal of Synthetic Chemistry and Natural …, 2017).

With `CCCCCCCCCCCCCCCCOP(=O)([O-])OCC[N+](C)(C)C` [Miltefosine, reference compound], the IC50 – broadly, the concentration that gives 50% inhibition – in data set [1] is 16.7 µM.

With `C=C1C(=O)O[C@H]2[C@H]1CC/C(C)=C/CC[C@@]1(C)O[C@@H]21` [Parthenolide (6), Parthenolide], the IC50 in data set [1] worked out at 59.1 µM; in data set [2], 89.2 µM. Further, the CC50 (commonly the concentration at which the toxic effect on the cells reaches its halfway point) at 48 h in data set [3] stood at 58.2 µM. For the same compound, the “effect on mitochondrial membrane potential” value in [4] was “mitochondrial depolarization”.

As to `C=C1C(=O)O[C@H]2C[C@@H](C)[C@@H]3C=CC(=O)[C@@]3(C)[C@H](O)[C@H]12` [Mexicanin I (2), Mexicanin I], the IC50 in data set [1] was 4.89 µM; in data set [2], 1.73 µM. In addition, the CC50 in data set [3] was determined as 9.2 µM. For the same compound, the “activity against L. (L.) mexicana” value in [5] is “activity against L. (L.) mexicana at low concentrations”.

Regarding `C=C1C(=O)O[C@@H]2C[C@@H](C)[C@@H]3C=CC(=O)[C@@]3(C)[C@@H](O)[C@H]12` [helenalin, reference compound], in data set [5], the “activity against L. (L.) mexicana” value was “activity against L. (L.) mexicana at low concentrations”.

Turning to `C=C1C(=O)OC2CC(C)C3C=CC(=O)C3(C)C(OC(C)=O)C12` (centres unmarked) [Helenalin acetate (1), Helenalin acetate], the 50% inhibitory concentration (IC50) in [1] was determined as 3.53 µM; in data set [2] it was 1.15 µM. The IC99 value in data set [1] (promastigotes, 1 × 10^6 parasites/well) was 6 µM. Besides, the “infection of macrophages (light microscopy)” value is recorded as “relatively high amastigote number” in data set [2] (0.33 µM, Figure S1c); “A large number of infected macrophages is visible” in data set [2] (1 µM, Figure S1b); “very few infected macrophages with each very few amastigotes” in data set [2] (3 µM, Figure S1a). The CC50 in data set [3] amounted to 8.12 µM. In [6], this compound registered a CC25 value of 3 µM. Besides, in data set [7], the “SYTOX Green fluorescence (plasma membrane permeability)” value is reported as “No significant increase of SYTOX Green fluorescence”. In data set [8], the “decrease of Rd123 fluorescence (Δψm)” value worked out at 60%. In addition, the “ROS production (H2DCFDA)” value in data set [9] (compound 1, 1 h of treatment) is reported as “no alteration of ROS”. In addition, the “production of NO” value in data set [10] is “significantly increased the production of NO”. Further, the “ultrastructural alterations (TEM)” value in [11] was “intense cytoplasmatic vacuolization, formation of autophagosomes, swelling of the mitochondrion, and chromatin decondensation”. Moreover, the “alteration of the plasma membrane” value in data set [5] (L. (L.) mexicana promastigotes, long-term treatment) is reported as “no alteration of the plasma membrane”.

Turning to `C=C1C(=O)O[C@@H]2[C@H]3C(C)=CC[C@@]34O[C@@]4(C)CC[C@@H]12` [Arglabin (3), Arglabin], the figures for the concentration for half-maximal inhibition (IC50) in data set [1] and in [2] were 30 µM and 7.33 µM, respectively. Moreover, the half-maximal cytotoxic concentration (CC50) in data set [3] is 39.4 µM.

As for `C=C1C(=O)O[C@@H]2C[C@@]3(C)CCC[C@H](C)C3=C[C@H]12` [Alantolactone (5), Alantolactone], it took 9.94 µM to reach half-maximal inhibition in data set [1] (IC50). Besides, the 50% cytotoxic concentration (CC50) at 48 h in [3] amounted to 11 µM.

With `CC[C@H]1/C=C/C=C/C[C@@H](C)[C@H](O)[C@@](C)(O)C(=O)[C@@H](C)[C@H](O)[C@@H](C)C(=O)[C@@H](C)[C@H](O)[C@@H](C)/C=C/C(=O)O[C@@H]2[C@H](C)[C@H](CC1)O[C@]1(CC[C@H](C)[C@H](C[C@@H](C)O)O1)[C@H]2C` [oligomycin, reference compound], in data set [9] (oligomycin 20 μM, positive control), the “ROS production (H2DCFDA)” value is on record as “increased the ROS production over time”.

`C=C1C(=O)O[C@@H]2/C=C(/CO)C3=CC(=O)[C@@](C)(C[C@@H](OC(=O)/C(C)=C/C)[C@@H]12)O3` [Budlein A (7), Budlein A]: 28 µM corresponded to half-maximal inhibition in data set [1] (IC50). In data set [3], this compound had a CC50 of 9.05 µM.

Take `C=C(CO)C(=O)O[C@H]1CC(=C)[C@@H]2C[C@H](O)C(=C)[C@@H]2[C@H]2OC(=O)C(=C)[C@@H]21` [Cynaropicrin (4), Cynaropicrin]: the half-maximal inhibitory concentration (IC50) in data set [1] is 30.6 µM; in data set [2], 6.88 µM. Besides, the CC50 at 48 h in data set [3] was 33.5 µM.
